Data taken from patent publication US10639298B2 (Biohaven Pharmaceutical Holding Company Ltd., priority 2015, dated 2020).

Tests used:
[1] = Rat pharmacokinetic studies of prodrug and released riluzole (IV or oral); format: in vivo, Sprague-Dawley rats
Protocol: Rat Pharmacokinetic Studies of the Compounds of the Disclosure:
Blood samples were collected at pre-determined time points including a 0 h time point and usually between 7 and 8 additional time points not exceeding a 24 h period.
Plasma samples were extracted and analyzed using the methods described in Plasma Sample Extraction and Analysis. All data are expressed as ng/mL of the free base. Samples that were below the limit of quantification (0.5 ng/mL) were not used in the calculation of averages.
Pharmacokinetic parameters were calculated from the time course of the plasmaconcentrations. Pharmacokinetic parameters were determined with Phoenix Winnonlin (v6.3) software using a non-compartmental model. The maximum plasma concentration (Cmax) and time to the maximum plasma concentration (Tmax) of the compound of the disclosure were observed from the data. The area under the concentration-time curve (AUC) of the compound of the disclosure was calculated using the trapezoidal formula with calculation to the last quantifiable data point, and to infinity if applicable. Plasma half-life (t½) was calculated from 0.693/slope of the terminal elimination phase. Mean residence time, MRT, was calculated by dividing the area under the moment curve (AUMC) by the AUC. Any samples below the limit of quantitation (0.5 ng/mL) were treated as zero for pharmacokinetic data analysis.
Plasma Sample Extraction and Analysis:
Analytical stock solutions (1.00 mg/mL of the free compound of the disclosure) were prepared in DMSO. Standards were prepared in diluted matrix containing 1 part 10% formic acid and 9 parts Sprague-Dawley rat plasma containing sodium heparin as the anticoagulant (pre-diluted with 1 part of 0.5M citric acid and 9 parts whole blood). Working solutions were prepared in 50:50 acetonitrile:water. Working solutions were then added to plasma to make calibration standards to final concentrations of 1000, 500, 100, 50, 10, 5, 1, and 0.5 ng/mL. Standards contained both the test article and riluzole. Standards were treated identically to the study samples.
Plasma samples were extracted via acetonitrile precipitation on a Tomtec Quadra 96-Model 320 liquid handling system in a 96-well plate format.

Melanoma C8161 cells = experiment: Inhibition of human melanoma cell xenograft growth; format: in vivo, nude mice; settings: P<0.01 (t test)
Protocol: Melanoma C8161 cells were inoculated s.c. into nude mice at […]. […] Mice were treated every day for 21 days, and tumor sizes were measured twice weekly with a Vernier caliper.

[2] = fasted male Sprague Dawley rats, IV, prodrug dose 2.8 mg/Kg
[3] = fasted male Sprague Dawley rats, PO 14.6 mg/kg

- Compound of the disclosure AUClast [1, 2]: 1526 ng·h/mL
- Compound of the disclosure Cl [1, 2]: 29.7 mL/min/kg
- Compound of the disclosure Vss [1, 2]: 3.57 L/kg
- Compound of the disclosure t1/2 ([1]; fasted male Sprague Dawley rats, IV, prodrug dose 2.8 mg/Kg, 2.8 mg/kg): 1.92 h
- Prodrug AUClast (Mean) [1, 3]: 2259 ng·h/mL
- Prodrug Cmax (Mean) [1, 3]: 213 ng/mL
- Prodrug t1/2 (Mean) [1, 3]: 3.8 h
- Prodrug tmax (Mean) [1, 3]: 1.80 h
- Half life on conversion to Riluzole ([1]; intravenous administration): moderate to long half life
- Half life on conversion to Riluzole ([1]; oral administration): long half life
- Oral bioavailability ([1]; oral administration): high oral bioavailability
- AUC(0-t) ([1]; rat, plasma, fasted male Sprague Dawley rats, IV, prodrug dose 2.8 mg/Kg, read-out: Compound of the disclosure AUClast): 1600 ng·h/mL
- clearance ([1]; rat, plasma, fasted male Sprague Dawley rats, IV, prodrug dose 2.8 mg/Kg, read-out: Compound of the disclosure Cl (converted)): 27.8 mL/min/kg
- Vd ([1]; rat, plasma, fasted male Sprague Dawley rats, IV, prodrug dose 2.8 mg/Kg, read-out: Compound of the disclosure Vss): 3.51 L/kg
SMILES: CN(CC(=O)Nc1nc2ccc(OC(F)(F)F)cc2s1)C(=O)CNC(C)(C)C [Example 125, 2-(tert-butylamino)-N-methyl-N-(2-oxo-2-((6-(trifluoromethoxy)benzo[d]thiazol-2-yl)amino)ethyl)acetamide]
- Tumor volume vs untreated or vehicle-treated controls (Melanoma C8161 cells; 4.9 mg/kg (threefold lower in molar terms) p.o. gavage every day for 21 days): significant reduction in tumor volume
- Tumor volume vs untreated or vehicle-treated controls (Melanoma C8161 cells; 14.6 mg/kg (equimolar to riluzole) p.o. gavage every day for 21 days): significant reduction in tumor volume
